Test results as given in patent US8871767B2, “2-arylimidazo[1,2-B]pyridazine, 2-phenylimidazo[1,2-A]pyridine, and 2-phenylimidazo[1,2-A]pyrazine derivatives” (Hengrui (USA) Ltd., priority 2010, dated 2014).

Each compound was assayed on Hedgehog pathway activation on 10T1/2/Smo#3 cells (C3H10T1/2 cells transfected with human Smoothened receptor) (assay: Hedgehog pathway activation on 10T1/2/Smo#3 cells measured by ALP activity). Conditions: Mus musculus, C3H 10T1/2, 10T1/2/Smo#3 cells, measured by ALP activity; read-out: ALP (IC50, inhibition of Hedgehog pathway activation).
Format: cell-based
Experimental: Hedgehog conditioned media was obtained by transfecting 293H cells with the full length gene encoding human Sonic Hedgehog (hShh) inserted into the pCMV6 expression vector, which contains a neomycin selectable marker and expresses the protein of interest with a C-terminal FLAG affinity tag. After selection in G418 containing media, conditioned media from Hedgehog expressing clones were tested for the ability to activate the hedgehog-responsive GLi-luciferase reporter in the Shh Light II cell line obtained by license from John Hopkins University (Taipale J, et al. Effects of oncogenic mutations in Smoothened and Patched can be reversed by cyclopamine. Nature 406: 1005-1009, 2000).
C3H10T1/2 cells were transfected with a pCMV expression vector containing the full length gene sequence encoding the human Smoothened receptor. Pooled cells, designated 10T1/2/Smo#3, growing in G418 selection media responded to activation by 10-20% conditioned hShh media with an approximate 5-10 fold increase in alkaline phosphaste (ALP) activity over untransfected parent C3H10T1/2 cells as measured by the conversion of the free acid of 4-methylumbelliferyl phosphate to a fluorescent product.
A test compound library was screened against hShh and 500 nM SAG (a direct agonist of the Smoothened receptor) activated 10T1/2/Smo#3 cells and Shh Light II reporter cells for the ability to block Hedgehog pathway activation. Concurrently, cell viability was measured by utilizing Celltiter-Blue® (Promega, Madison Wis.) viability assay. Active compounds were defined as those that inhibited Hedgehog signaling by greater than 50% with no concurrent loss in cell viability.
Their inhibitory activity against Hedgehog pathway activation on 10T1/2/Smo#3 cells as measured by ALP activity and Shh Light II reporter cells as measured by luciferase activity is shown in Table 1 below. In Table 1, +++ stands for an IC50 value that is less than 0.3 μM, ++ between 0.3 and 3 μM, + between 3 and 30 μM.
Additional data for compounds of the invention is shown below in Table 2. Their inhibitory activities against Hedgehog pathway activation are shown as IC50 values in μM on 10T1/2/Smo#3 cells as measured by ALP activity, or on Shh Light II reporter cells as measured by luciferase activity (hShh activation).

| Structure (SMILES) | IC50 [µM] |
| --- | --- |
| Cc1ccc(-c2cn3nc(NC(=O)c4cccc(Br)c4)ccc3n2)cc1NC(=O)C(C)(C)C [compound 594] | 0.03 |
| O=S(=O)(NC1CC1)c1cc(-c2cn3nc(-c4cccnc4C(F)(F)F)ccc3n2)ccc1Cl [Example 702, 2-chloro-N-cyclopropyl-5-(6-(2-(trifluoromethyl)pyridin-3-yl)imidazo[1,2-b]pyridazin-2-yl)benzenesulfonamide] | > 10 |
| Cc1ccc(-c2cn3nc(-c4ccc(Cl)cn4)ccc3n2)cc1NC(=O)C(C)(C)C [Example 366, N-(5-(6-(5-chloropyridin-2-yl)imidazo[1,2-b]pyridazin-2-yl)-2-methylphenyl)pivalamide] | 1.1 |
| CC(C)(C)C(=O)Nc1cc(-c2cn3nc(-c4cccnc4C(F)(F)F)ccc3n2)c(F)cc1F [Example 652, N-(2,4-difluoro-5-(6-(2-(trifluoromethyl)pyridin-3-yl)imidazo[1,2-b]pyridazin-2-yl)phenyl)pivalamide] | 0.036 |
| CCCCOc1ccc2nc(-c3ccc(OC(F)(F)F)c(NC(=O)C(C)(C)C)c3)cn2n1 [Example 249, N-(5-(6-butoxyimidazo[1,2-b]pyridazin-2-yl)-2-(trifluoromethoxy)phenyl)pivalamide] | 0.889 |

Other lines, results leading:

| IC50 [µM] | Structure (SMILES) |
| --- | --- |
| 1.94 | Cc1ccc(-c2cn3nc(Cl)ccc3n2)cc1NC(=O)C(C)(C)C(F)(F)F [Example 122, N-(5-(6-chloroimidazo[1,2-b]pyridazin-2-yl)-2-methylphenyl)-3,3,3-trifluoro-2,2-dimethylpropanamide] |
| 0.36 | CC(=O)c1cccc(-c2ccc3nc(-c4ccc(C(F)(F)F)c(NC(=O)C(C)(C)C)c4)cn3n2)c1 [Example 254, N-(5-(6-(3-acetylphenyl)imidazo[1,2-b]pyridazin-2-yl)-2-(trifluoromethyl)phenyl)pivalamide] |
| 1.86 | Cn1cccc1-c1ccc2nc(-c3ccc(C(F)(F)F)c(NC(=O)C(C)(C)C)c3)cn2n1 [Example 379, N-(5-(6-(1-methyl-1H-pyrrol-2-yl)imidazo[1,2-b]pyridazin-2-yl)-2-(trifluoromethyl)phenyl)pivalamide] |
| 2.97 | CC(C)(C)C(=O)Nc1cc(-c2cn3nc(Cl)ccc3n2)ccc1OC(F)(F)F [Example 245, N-(5-(6-chloroimidazo[1,2-b]pyridazin-2-yl)-2-(trifluoromethoxy)phenyl)pivalamide] |
| 1.53 | C[C@@H]1CN(c2ccc3nc(-c4ccc(OC(F)(F)F)c(NC(=O)C(C)(C)C)c4)cn3n2)C[C@H](C)O1 [Example 463, N-(5-(6-((2R,6S)-2,6-dimethylmorpholino)imidazo[1,2-b]pyridazin-2-yl)-2-(trifluoromethoxy)phenyl)pivalamide] |
| 1.26 | CCOc1ccc2nc(-c3ccc(C4CC4)c(NC(=O)C(C)(C)C)c3)cn2n1 [Example 272, N-(2-cyclopropyl-5-(6-ethoxyimidazo[1,2-b]pyridazin-2-yl)phenyl)pivalamide] |
| 0.246 | CC(C)(C)C(=O)Nc1cc(-c2cn3nc(-c4ccccc4F)ccc3n2)ccc1C1CC1 [Example 271, N-(2-cyclopropyl-5-(6-(2-fluorophenyl)imidazo[1,2-b]pyridazin-2-yl)phenyl)pivalamide] |
| 0.259 | C[C@@H]1CN(c2ccc3nc(-c4ccc(C(F)(F)F)c(NC(=O)C(C)(C)C)c4)cn3n2)C[C@H](C)O1 [Example 250, N-(5-(6-(2,6-dimethylmorpholino)imidazo[1,2-b]pyridazin-2-yl)-2-(trifluoromethyl)phenyl)pivalamide] |
| 1.94 | CC(C)(C)C(=O)Nc1cc(-c2cn3nc(N4CCN(S(C)(=O)=O)CC4)ccc3n2)ccc1OC(F)(F)F [Example 268, N-(5-(6-(4-(methylsulfonyl)piperazin-1-yl)imidazo[1,2-b]pyridazin-2-yl)-2-(trifluoromethoxy)phenyl)pivalamide] |
| 2.08 | CC(C)(C)C(=O)Nc1cc(-c2cn3nc(N4CCOCC4)ccc3n2)ccc1OC(F)(F)F [Example 267, N-(5-(6-morpholinoimidazo[1,2-b]pyridazin-2-yl)-2-(trifluoromethoxy)phenyl)pivalamide] |
| 1.32 | CCOc1ccc2nc(-c3ccc(OC(F)(F)F)c(NC(=O)C(C)(C)C)c3)cn2n1 [Example 246, N-(5-(6-ethoxyimidazo[1,2-b]pyridazin-2-yl)-2-(trifluoromethoxy)phenyl)pivalamide] |
| 1.53 | CC1CN(c2ccc3nc(-c4ccc(OC(F)(F)F)c(NC(=O)C(C)(C)C)c4)cn3n2)CC(C)O1 (centres unmarked) [Example 266, N-(5-(6-(2,6-dimethylmorpholino)imidazo[1,2-b]pyridazin-2-yl)-2-(trifluoromethoxy)phenyl)pivalamide] |
| 0.518 | CC(C)Oc1ccccc1-c1ccc2nc(-c3ccc(C(F)(F)F)c(NC(=O)C(C)(C)C)c3)cn2n1 [Example 251, N-(5-(6-(2-isopropoxyphenyl)imidazo[1,2-b]pyridazin-2-yl)-2-(trifluoromethyl)phenyl)pivalamide] |
| 9.43 | CC(C)(C)C(=O)Nc1cc(-c2cn3nc(Cl)ccc3n2)ccc1C1CC1 [Example 270, N-(5-(6-chloroimidazo[1,2-b]pyridazin-2-yl)-2-cyclopropylphenyl)pivalamide] |
| 1.01 | CC(C)(C)C(=O)Nc1cc(-c2cn3nc(N4CCC(O)CC4)ccc3n2)ccc1OC(F)(F)F [Example 269, N-(5-(6-(4-hydroxypiperidin-1-yl)imidazo[1,2-b]pyridazin-2-yl)-2-(trifluoromethoxy)phenyl)pivalamide] |
| 0.497 | CCOC(=O)c1ccccc1-c1ccc2nc(-c3ccc(C(F)(F)F)c(NC(=O)C(C)(C)C)c3)cn2n1 [Example 257, ethyl 2-(2-(3-pivalamido-4-(trifluoromethyl)phenyl)imidazo[1,2-b]pyridazin-6-yl)benzoate] |

These compounds were tested on Hedgehog pathway activation (GLi-luciferase reporter) in Shh Light II reporter cells (assay: Hedgehog pathway activation on Shh Light II reporter cells measured by luciferase activity). Conditions: Mus musculus, Shh Light II, hShh activation, read-out: Shh (IC50, inhibition of Hedgehog pathway activation).
Format: cell-based
Outline: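 Shh Light II reporter cells carrying a hedgehog-responsive GLi-luciferase reporter were stimulated either with 500 nM SAG, a direct Smoothened agonist, or with conditioned media containing human Sonic Hedgehog (hShh). Test compounds were evaluated for blocking this pathway activation, quantified by luciferase activity. Cell viability was monitored in parallel with the Celltiter-Blue® assay.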

| Structure (SMILES) | IC50 [µM] |
| --- | --- |
| Cc1ccc(-c2cn3nc(NC(=O)c4cccc(Br)c4)ccc3n2)cc1NC(=O)C(C)(C)C [compound 594] | 0.02 |
| O=S(=O)(NC1CC1)c1cc(-c2cn3nc(-c4cccnc4C(F)(F)F)ccc3n2)ccc1Cl [Example 702, 2-chloro-N-cyclopropyl-5-(6-(2-(trifluoromethyl)pyridin-3-yl)imidazo[1,2-b]pyridazin-2-yl)benzenesulfonamide] | 3.98 |
| Cc1ccc(-c2cn3nc(-c4ccc(Cl)cn4)ccc3n2)cc1NC(=O)C(C)(C)C [Example 366, N-(5-(6-(5-chloropyridin-2-yl)imidazo[1,2-b]pyridazin-2-yl)-2-methylphenyl)pivalamide] | 0.227 |
| CC(C)(C)C(=O)Nc1cc(-c2cn3nc(-c4cccnc4C(F)(F)F)ccc3n2)c(F)cc1F [Example 652, N-(2,4-difluoro-5-(6-(2-(trifluoromethyl)pyridin-3-yl)imidazo[1,2-b]pyridazin-2-yl)phenyl)pivalamide] | 0.034 |
| CC(=O)Nc1ccc(-c2ccc3nc(-c4ccc(C)c(NC(=O)C(C)(C)C)c4)cn3n2)cn1 [compound 505, N-(5-(6-(6-acetamidopyridin-3-yl)imidazo[1,2-b]pyridazin-2-yl)-2-methylphenyl)pivalamide] | 0.99 |
| Cc1ccc(-c2cn3nc(-c4c[nH]nc4C)ccc3n2)cc1NC(=O)C(C)(C)C [compound 500] | 0.45 |
| Cc1ccc(-c2cn3nc(C=CC(=O)NO)ccc3n2)cc1NC(=O)C(C)(C)C [compound 578] | 9.28 |
| Cc1ccc(-c2cn3nc(-c4ccc(NC(=O)CCCCCCC(=O)NO)cc4)ccc3n2)cc1NC(=O)C(C)(C)C [compound 563] | 0.622 |
| Cc1ccc(-c2cn3nc(-c4cc(C=CC(=O)NO)ccc4Cl)ccc3n2)cc1NC(=O)C(C)(C)C [compound 579] | 0.317 |
| Cc1ccc(-c2cn3nc(NC(=O)c4cc(Cl)ccn4)ccc3n2)cc1NC(=O)C(C)(C)C [compound 613] | 0.283 |
| Cc1ccc(-c2cn3nc(-c4ccc(C(=O)O)cn4)ccc3n2)cc1NC(=O)C(C)(C)C [Example 459, 6-(2-(4-methyl-3-pivalamidophenyl)imidazo[1,2-b]pyridazin-6-yl)nicotinic acid] | 9.29 |

Now from value to compound:

| IC50 [µM] | Structure (SMILES) |
| --- | --- |
| 3.04 | Cc1ccc(-c2cn3nc(Cl)ccc3n2)cc1NC(=O)C(C)(C)C(F)(F)F [Example 122, N-(5-(6-chloroimidazo[1,2-b]pyridazin-2-yl)-2-methylphenyl)-3,3,3-trifluoro-2,2-dimethylpropanamide] |
| > 10 | Cn1cccc1-c1ccc2nc(-c3ccc(C(F)(F)F)c(NC(=O)C(C)(C)C)c3)cn2n1 [Example 379, N-(5-(6-(1-methyl-1H-pyrrol-2-yl)imidazo[1,2-b]pyridazin-2-yl)-2-(trifluoromethyl)phenyl)pivalamide] |
| 0.353 | CCOC(=O)CCCOc1ccc(C(F)(F)F)c(-c2ccc3nc(-c4ccc(C)c(NC(=O)C(C)(C)C)c4)cn3n2)c1 [Example 434, ethyl 4-(3-(2-(4-methyl-3-pivalamidophenyl)imidazo[1,2-b]pyridazin-6-yl)-4-(trifluoromethyl)phenoxy)butanoate] |
| 0.456 | Cc1ccc(-c2cn3nc(-c4ccc(-c5nc(=O)[nH][nH]5)cc4C(F)(F)F)ccc3n2)cc1NC(=O)C(C)(C)C [compound 590] |
| 0.203 | CC(C)(C)C(=O)Nc1cc(-c2cn3nc(N4CCC(N)C4)ccc3n2)ccc1C(F)(F)F (centres unmarked) [Example 318, N-(5-(6-(3-aminopyrrolidin-1-yl)imidazo[1,2-b]pyridazin-2-yl)-2-(trifluoromethyl)phenyl)pivalamide] |

Same assay, conditions: hShh activation, read-out: Shh (IC50, inhibition of Hedgehog pathway activation)

| IC50 [µM] | Structure (SMILES) |
| --- | --- |
| 5.43 | Cc1ccc(-c2cn3nc(-c4cccnc4C(F)(F)F)ccc3n2)cc1NC(=O)CCCCCCC(=O)O [Example 430, 8-(2-methyl-5-(6-(2-(trifluoromethyl)pyridin-3-yl)imidazo[1,2-b]pyridazin-2-yl)phenylamino)-8-oxooctanoic acid] |
